Experimental data as given in patent US20120295907A1, “INSECTICIDAL COMPOUNDS” (SYNGENTA CROP PROTECTION, LLC, priority 2009, published 2012).

Legend:
Assay type in all cases: in vivo
Myzus persicae = Myzus persicae (Green Peach Aphid) sunflower leaf disc spray test; conditions: foliar, 144 h, 200 ppm spray on sunflower leaf discs, aphid population of mixed ages, 6 DAT, mortality
Spodoptera littoralis = Spodoptera littoralis (Egyptian Cotton Leafworm) cotton leaf disc spray test; conditions: foliar, 72 h, 200 ppm spray on cotton leaf discs, L1 larvae, mortality, feeding behavior, growth regulation 3 DAT
Thrips tabaci = Thrips tabaci (Onion Thrips) sunflower leaf disc spray test; conditions: foliar, 168 h, 200 ppm spray on sunflower leaf discs, population of mixed ages, 7 days, mortality
Plutella xylostella = Plutella xylostella (Diamond Back Moth) artificial diet MTP test; conditions: 144 h, 200 ppm (concentration in well 18 ppm), L2 larvae, 6 days, larval mortality, growth regulation
Heliothis virescens = Heliothis virescens (Tobacco Budworm) egg test on artificial diet; conditions: 96 h, 200 ppm (concentration in well 18 ppm), eggs 0-24 h old on artificial diet, 4 days, egg mortality, larval mortality, growth regulation
Tetranychus urticae = Tetranychus urticae (Two-Spotted Spider Mite) bean leaf disc spray test; conditions: foliar, 192 h, 200 ppm spray on bean leaf discs, mite populations of mixed ages, 8 days, egg, larval and adult mortality, read-out: control of Tetranychus urticae
Diabrotica balteata = Diabrotica balteata (Corn Root Worm) artificial diet MTP test; conditions: 120 h, 200 ppm (concentration in well 18 ppm), L2 larvae, 5 days, larval mortality, growth regulation

Measured: pest or weed control at 200 ppm

COc1c(NC(=O)c2ccccc2)cccc1C(=O)Nc1c(Cl)cc(C(F)(C(F)(F)F)C(F)(F)C(F)(F)F)cc1Cl (stereo not shown) [C18]
not listed: Tetranychus urticae | Diabrotica balteata
≥ 80%: all other assays above

COCc1cc(C(F)(C(F)(F)F)C(F)(F)C(F)(F)F)cc(Cl)c1NC(=O)c1cccc(NC(=O)c2ccc(C#N)cc2C)c1OC (stereo not shown) [H1]
≥ 80%: Myzus persicae | Plutella xylostella | Heliothis virescens

COc1c(NC(=O)c2ccsc2)cccc1C(=O)Nc1c(Cl)cc(C(F)(C(F)(F)F)C(F)(F)C(F)(F)F)cc1Br (stereo not shown) [B124]
not listed: Tetranychus urticae | Diabrotica balteata
≥ 80%: all other assays above

COc1c(NC(=O)c2cccc(Cl)c2Cl)cccc1C(=O)Nc1c(Cl)cc(C(F)(C(F)(F)F)C(F)(F)C(F)(F)F)cc1Br (stereo not shown) [B184]
not listed: Myzus persicae
≥ 80%: all other assays above

COc1c(NC(=O)c2cccc([N+](=O)[O-])c2Cl)cccc1C(=O)Nc1c(Cl)cc(C(F)(C(F)(F)F)C(F)(F)C(F)(F)F)cc1Br (stereo not shown) [B183]
not listed: Myzus persicae
≥ 80%: all other assays above

COc1c(NC(=O)c2ccc(C#N)cc2C)cccc1C(=O)Nc1c(Cl)cc(C(F)(C(F)(F)F)C(F)(F)C(F)(F)F)cc1Cl (stereo not shown) [C2, N-[2,6-dichloro-4-(1,2,2,3,3,3-hexafluoro-1-trifluoromethylpropyl)phenyl]-3-(4-cyano-2-methylbenzoylamino)-2-methoxybenzamide]
not listed: Myzus persicae
≥ 80%: all other assays above

COc1c(NC(=O)c2cccc(CC#N)c2)cccc1C(=O)Nc1c(Cl)cc(C(F)(C(F)(F)F)C(F)(F)C(F)(F)F)cc1Br (stereo not shown) [B110]
not listed: Myzus persicae
≥ 80%: all other assays above

COc1c(NC(=O)c2ccc(F)cc2C)cccc1C(=O)Nc1c(Cl)cc(C(F)(C(F)(F)F)C(F)(F)C(F)(F)F)cc1Br (stereo not shown) [B9]
not listed: Myzus persicae
≥ 80%: all other assays above

COc1c(NC(=O)c2ccc(Cl)cc2[N+](=O)[O-])cccc1C(=O)Nc1c(Cl)cc(C(F)(C(F)(F)F)C(F)(F)C(F)(F)F)cc1Br (stereo not shown) [B64]
not listed: Myzus persicae
≥ 80%: all other assays above

COc1c(NC(=O)c2ccc(F)cc2Cl)cccc1C(=O)Nc1c(Cl)cc(C(F)(C(F)(F)F)C(F)(F)F)cc1Cl [E19]
not listed: Myzus persicae
≥ 80%: all other assays above

COc1c(NC(=O)c2cc(F)c(F)cc2Cl)cccc1C(=O)Nc1c(Cl)cc(C(F)(C(F)(F)F)C(F)(F)C(F)(F)F)cc1Br (stereo not shown) [B73]
not listed: Myzus persicae
≥ 80%: all other assays above
